Assay results: publication PMC3348578 (2009)

How the values were obtained:
[1] = test system: DPP4-like protease; experiment: honeybee venom gland extracts; conditions: cited from earlier work
[2] = test system: FAP (purified recombinant FAP; His-tagged FAP lacking the transmembrane domain); experiment: purified FAP in FAP assay buffer containing 100 mmol/L Tris, 100 mmol/L NaCl; conditions: 37°C, up to 8 h

Substance: APEPEPAPEPEAEADAEADPEAGIGAVLKVLTTGLPALISWIKRKRQQ-NH2
- fragment found [1]: 11 dipeptide fragments

Substance: NH2-GIGAVLKVLTTGLPALISWIKRKRQQ-NH2
- not cleaved [2]: not cleaved by FAP
